{"source": "patent US9770436B2", "about": "“Polymorphs of azabicyclohexane” (EUTHYMICS BIOSCIENCE, INC., priority 2004, dated 2017)", "key": {"[1]": {"conditions": "(+) isomeric form; cited from earlier work"}, "[2]": {"assay": "Informal storage stability of the Example 1 hydrochloride salt (50% by weight mixture of polymorph forms A and B) in desiccators; polymorph content by XRPD and Raman", "type": "physicochemical", "conditions": "started as 50% (by weight) A / 50% B, XRPD", "experimental": "The X-ray powder diffraction pattern (XRPD) analyses of polymorph forms A, B and C were performed with a Shimadzu XRD-6000 X-ray powder diffractometer using Cu Ka radiation. In this procedure the compound as a hydrochloride salt was loaded onto the machine as a crystalline powder. The instrument was equipped with a long fine focus X-ray tube. The tube voltage and amperage were set to 40 kV and 40 mA, respectively. The divergence and scattering slits were set at 1° and the receiving slit was set at 0.15 mm. Diffracted radiation was detected by a Nal scintillation detector. A theta-two theta continuous scan at 3°/min (0.4 sec/0.02° step) from 2.5 to 40° 2θ was used. A silicon standard was analyzed to check the instrument alignment. Data were collected and analyzed using XRD-6000 v. 4.1.\nBriefly, Raman spectra were obtained using a FT-Raman 960 (or 860) spectrometer (Thermo Nicolet) interfaced to an 860 FT-IR. This spectrometer uses an excitation wavelength of 1064 nm. Approximately 0.912 W of Nd:YV04 laser power was used to irradiate the samples. The Raman spectra were measured with an indium gallium arsenide (InGaAs) detector. The samples were pressed into pellets for analysis. A total of 128 sample scans were collected from 3600 or 3700-98 cm^−1 at a spectral resolution of about (±) 4 cm^−1, using Happ-Genzel apodization. Wavelength calibration was performed using sulfur and cyclohexane. The Raman spectra peak positions given below in wavenumbers (cm^−1) for the purified polymorph forms A, B and C of the hydrochloride salt of (+)-1-(3,4-dichlorophenyl)-3-azabicyclo[3.1.0]hexane are subject to an error of about (±) 4 cm^−1.\nDuplicate samples of the hydrochloride salt of (+)-1-(3,4dichlorophenyl)-3-azabicyclo[3.1.0] hexane produced in Example 1 and containing a 50% (by weight) mixture of polymorph form A and polymorph form B were placed on informal stability to test storage in desiccators placed at ambient temperature and at 50° C. in a programmable heating bloc."}, "[3]": {"assay": "Thermodynamic stability of the crystalline polymorph forms", "type": "physicochemical", "conditions": "pure crystalline structure, acid addition salt"}, "[4]": {"conditions": "50° C. programmable heating block, after 17 days of storage"}, "[5]": {"conditions": "desiccator, ambient temperature, after 1 week, confirmed by Raman"}}}
{"molecule": "Clc1ccc(C23CNCC2C3)cc1Cl", "note": "(single isomer, unassigned; (+)) [compound of formula I, (+)-1-(3,4-dichlorophenyl)-3-azabicyclo[3.1.0]hexane]", "values": [{"measurement": "anti-depressive activity", "setting": "[1]", "result": "potent anti-depressive activity"}]}
{"molecule": "Cl.Clc1ccc(C23CNCC2C3)cc1Cl", "note": "(stereo not drawn) [Example 1, hydrochloride salt of (+)-1-(3,4dichlorophenyl)-3-azabicyclo[3.1.0] hexane]", "values": [{"measurement": "content of polymorph form A after storage", "setting": "[2]; [4]", "result": "about 50 % (by weight)"}, {"measurement": "content of polymorph form C after storage", "setting": "[2]; [4]", "result": "50 % (by weight)"}, {"measurement": "content of polymorph form A after storage", "setting": "[2]; [5]", "result": "40 % (by weight)"}, {"measurement": "content of polymorph form B after storage", "setting": "[2]; [5]", "result": "60 % (by weight)"}]}
{"molecule": "Cl.Clc1ccc(C23CNCC2C3)cc1Cl", "note": "(stereo not drawn) [polymorph form A, hydrochloride salt of (+)-1-(3,4-dichlorophenyl)-3-azabicyclo[3.1.0]hexane]", "values": [{"measurement": "thermodynamic stability of the polymorph form", "setting": "[3]", "result": "thermodynamically stable"}]}
